The term Kd denotes the concentration at which binding is half-saturated. Broadly, the IC50 is the concentration that inhibits the measured activity by half. Read a high IC50 as a need for much substance.

The record followed here is paper PMC11830721 (Frontiers in Pharmacology, 2025).

Assay [1] concerns the target T1, FLT3-ITD (Homo sapiens, UniProt P36888, ITD).
T1 sequence (P36888 27-993): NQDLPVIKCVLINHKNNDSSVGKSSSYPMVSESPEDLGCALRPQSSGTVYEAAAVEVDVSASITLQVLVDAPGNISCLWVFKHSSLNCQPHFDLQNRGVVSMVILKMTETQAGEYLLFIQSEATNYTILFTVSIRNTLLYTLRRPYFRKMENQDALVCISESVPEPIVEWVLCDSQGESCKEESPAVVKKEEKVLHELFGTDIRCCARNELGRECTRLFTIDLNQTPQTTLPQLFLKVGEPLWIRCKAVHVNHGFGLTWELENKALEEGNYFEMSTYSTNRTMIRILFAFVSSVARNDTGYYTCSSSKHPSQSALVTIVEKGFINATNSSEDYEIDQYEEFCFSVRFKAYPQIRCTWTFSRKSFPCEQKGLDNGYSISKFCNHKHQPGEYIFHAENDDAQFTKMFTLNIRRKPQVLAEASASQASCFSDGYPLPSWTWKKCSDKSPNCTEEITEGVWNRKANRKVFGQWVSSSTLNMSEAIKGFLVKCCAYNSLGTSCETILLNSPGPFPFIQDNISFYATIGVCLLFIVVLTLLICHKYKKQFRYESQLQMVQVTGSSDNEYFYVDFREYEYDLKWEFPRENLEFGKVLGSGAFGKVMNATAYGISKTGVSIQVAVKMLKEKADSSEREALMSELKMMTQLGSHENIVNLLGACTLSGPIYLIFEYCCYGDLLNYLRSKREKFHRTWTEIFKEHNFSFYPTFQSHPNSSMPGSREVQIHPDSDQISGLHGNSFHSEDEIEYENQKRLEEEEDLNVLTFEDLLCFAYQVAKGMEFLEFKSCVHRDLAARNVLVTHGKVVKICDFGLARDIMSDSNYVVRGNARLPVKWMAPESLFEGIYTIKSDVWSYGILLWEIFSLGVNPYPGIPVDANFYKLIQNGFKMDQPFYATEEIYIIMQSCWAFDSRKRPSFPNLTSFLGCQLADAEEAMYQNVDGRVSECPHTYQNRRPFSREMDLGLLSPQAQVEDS
The assay is described as follows: Microscale thermophoresis (MST) binding affinity. Conditions: 50 mM Tris, 230 mM NaCl, pH 7.0, labeled protein 50 nM. As for the experimental part: The protein was labeled with a fluorescence tag utilizing a Lys Labeling Kit (NanoTemper), with a final concentration of 50 nM being achieved. Adhering to the manufacturer’s guidelines, the compounds were titrated from an initial concentration of 12.5 μM with a 1:1 dilution ratio. Next, each sample was centrifuged at 15,000 rpm for 5 min, followed by loading into standard glass capillaries for MST analysis.

The target of assay [2] is T1, FLT3-ITD. In words: ADP-Glo kinase-inhibition assay. It is filed as biochemical. The conditions noted are these: ADP-Glo; ATP 100 μM; FLT3-ITD 10 ng/μL. As to the method:
(§1) Subsequently, the kinase detection reagent was added and incubated for an additional 15 min. Finally, the mixture was incubated for 1 h, and relative luminescence units (RLU) were measured.
(§2) Moreover, we extended the kinase selectivity profiling of FLIN-4 to evaluate its inhibitory activity against 60 non-target kinases.
Background: In ADP-Glo the light output rises with the ADP produced.

The test system of assay [3] is FLT3-ITD. In words: ADP-Glo kinase-inhibition assay. Conditions: ratio of IC50 values vs Midostaurin. It is filed as biochemical. As to the method:
as §1, §2

The test system of assay [4] is NB4 cells. In words: MTT assay, NB4 (FLT3 wild-type). It is filed as cell-based. The conditions noted are these: 2–64 μM. The source says: The human AML cell line MV4-11, which bears exclusive FLT3-ITD mutation genes, was purchased from the American Type Culture Collection (ATCC, Manassas, VA, United States), and the AML cell line NB4, a FLT3-wildtype cell line, was obtained from the China Center for Type Culture Collection (CCTCC, Wuhan, China). In addition, the normal hematopoietic cell line was COLO 829BL from ATCC. The cells were maintained in RPMI-1640 medium supplemented with 10% FBS, and 1% penicillin and streptomycin. The cells were cultured in an incubator at 37°C with 5% CO2. […] The high-performance liquid chromatography (HPLC) spectra data for each compound are provided in the (Supplementary Figures S1–S6). The FLT3-ITD mutant protein was purchased from Abcam (Cambridge, United Kingdom).
The effects of the test compounds on MV4-11, NB4, and COLO 829BL cell lines were quantitatively evaluated according to the methods previously reported ([Zhou et al., 2022]).
Subsequently, to further validate the specificity of FLIN-4 for cells expressing FLT3-ITD, we conducted MTT assays to assess the specificity and cytotoxicity of FLIN-4 within the concentration range of 2–64 μM on NB4 cells (harboring FLT3 wild-type) and COLO 829BL cells (representing normal hematopoietic cells). […]

In assay [5] the target is ABL2 (Homo sapiens, UniProt P42684). The assay is described as follows: SelectScreen kinase selectivity assay. The format is biochemical. Conditions: ten-dose 0.25–128 μM. As for the experimental part: (§3) Following the standardized kinase activity assay protocol as previously reported, we utilized the SelectScreen Kinase Profiling Service (Thermo Fisher Scientific) to determine the kinase selectivity profile of FLIN-4 ([van der Wel et al., 2020]). Through a ten-dose dilution series ranging from 0.25 μM to 128 μM in dose-response experiments, we precisely measured the inhibitory effect of FLIN-4 on the substrate phosphorylation reactions catalyzed by a panel of kinases, and thus ascertained the half-maximal inhibitory concentrations (IC50) for each kinase.

Assay [6] concerns the target BMX (Homo sapiens, UniProt P51813). In words: SelectScreen kinase selectivity assay. The format is biochemical. Conditions: ten-dose 0.25–128 μM. As for the experimental part:
as §3

Assay [7] addresses EPHA6 (Homo sapiens, UniProt Q9UF33). In words: SelectScreen kinase selectivity assay. The format is biochemical. Conditions: ten-dose 0.25–128 μM. As to the method: as §3
Assay [8] concerns the target EPHA8 (Homo sapiens, UniProt P29322). In words: SelectScreen kinase selectivity assay. It is filed as biochemical. Conditions: ten-dose 0.25–128 μM. As to the method:
as §3

Assay [9] concerns the target FES (Homo sapiens, UniProt P07332). In words: SelectScreen kinase selectivity assay. It is filed as biochemical. Conditions: ten-dose 0.25–128 μM. As to the method: as §3
Assay [10] has as its target FGFR1 (Homo sapiens, UniProt P11362). In words: SelectScreen kinase selectivity assay. The format is biochemical. The conditions noted are these: ten-dose 0.25–128 μM. As to the method: as §3
The target of assay [11] is ITK (Homo sapiens, UniProt Q08881). In words: SelectScreen kinase selectivity assay. The format is biochemical. Conditions: ten-dose 0.25–128 μM. As to the method:
as §3

Assay [12] concerns the target JAK2 (Homo sapiens, UniProt O60674). The assay is described as follows: SelectScreen kinase selectivity assay. The format is biochemical. The conditions noted are these: ten-dose 0.25–128 μM. As for the experimental part: as §3
For assay [13], the target named is PIM1 (Homo sapiens, UniProt P11309). The assay is described as follows: SelectScreen kinase selectivity assay. It is filed as biochemical. Conditions: ten-dose 0.25–128 μM. As for the experimental part: as §3
The target of assay [14] is PLK1 (Homo sapiens, UniProt P53350). In words: SelectScreen kinase selectivity assay. The format is biochemical. The conditions noted are these: ten-dose 0.25–128 μM. As for the experimental part:
as §3

Assay [15] concerns the target RAF1 (Homo sapiens, UniProt P04049, Y340D/Y341D). In words: SelectScreen kinase selectivity assay. The format is biochemical. Conditions: ten-dose 0.25–128 μM. As for the experimental part:
as §3

Sequence of EPHA6 (Q9UF33 23-1036): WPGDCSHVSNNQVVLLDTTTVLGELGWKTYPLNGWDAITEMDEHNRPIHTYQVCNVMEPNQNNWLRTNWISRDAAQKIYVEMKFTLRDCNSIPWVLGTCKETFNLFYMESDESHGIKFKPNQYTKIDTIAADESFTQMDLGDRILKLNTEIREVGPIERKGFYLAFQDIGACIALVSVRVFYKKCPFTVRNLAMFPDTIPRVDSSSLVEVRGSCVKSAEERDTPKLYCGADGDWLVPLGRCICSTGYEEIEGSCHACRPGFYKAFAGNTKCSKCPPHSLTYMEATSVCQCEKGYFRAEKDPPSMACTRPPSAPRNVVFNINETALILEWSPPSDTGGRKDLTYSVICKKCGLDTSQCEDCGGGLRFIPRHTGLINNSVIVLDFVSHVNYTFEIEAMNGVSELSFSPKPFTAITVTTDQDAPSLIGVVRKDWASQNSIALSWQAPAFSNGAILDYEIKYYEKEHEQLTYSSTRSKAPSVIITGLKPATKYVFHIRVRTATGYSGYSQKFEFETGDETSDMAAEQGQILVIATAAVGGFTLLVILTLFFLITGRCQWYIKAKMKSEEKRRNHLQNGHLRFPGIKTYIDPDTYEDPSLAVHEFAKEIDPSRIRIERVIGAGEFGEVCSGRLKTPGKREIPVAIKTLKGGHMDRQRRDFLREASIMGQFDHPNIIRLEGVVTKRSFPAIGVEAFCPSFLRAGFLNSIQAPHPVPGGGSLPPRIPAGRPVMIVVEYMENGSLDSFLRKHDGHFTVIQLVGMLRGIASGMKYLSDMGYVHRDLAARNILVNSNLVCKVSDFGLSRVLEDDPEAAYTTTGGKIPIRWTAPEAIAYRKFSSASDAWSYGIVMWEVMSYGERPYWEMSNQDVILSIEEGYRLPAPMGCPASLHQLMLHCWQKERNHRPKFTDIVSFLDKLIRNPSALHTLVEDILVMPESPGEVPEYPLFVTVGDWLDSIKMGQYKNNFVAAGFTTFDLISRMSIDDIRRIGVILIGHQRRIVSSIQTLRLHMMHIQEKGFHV
Sequence of PLK1 (P53350 whole entry): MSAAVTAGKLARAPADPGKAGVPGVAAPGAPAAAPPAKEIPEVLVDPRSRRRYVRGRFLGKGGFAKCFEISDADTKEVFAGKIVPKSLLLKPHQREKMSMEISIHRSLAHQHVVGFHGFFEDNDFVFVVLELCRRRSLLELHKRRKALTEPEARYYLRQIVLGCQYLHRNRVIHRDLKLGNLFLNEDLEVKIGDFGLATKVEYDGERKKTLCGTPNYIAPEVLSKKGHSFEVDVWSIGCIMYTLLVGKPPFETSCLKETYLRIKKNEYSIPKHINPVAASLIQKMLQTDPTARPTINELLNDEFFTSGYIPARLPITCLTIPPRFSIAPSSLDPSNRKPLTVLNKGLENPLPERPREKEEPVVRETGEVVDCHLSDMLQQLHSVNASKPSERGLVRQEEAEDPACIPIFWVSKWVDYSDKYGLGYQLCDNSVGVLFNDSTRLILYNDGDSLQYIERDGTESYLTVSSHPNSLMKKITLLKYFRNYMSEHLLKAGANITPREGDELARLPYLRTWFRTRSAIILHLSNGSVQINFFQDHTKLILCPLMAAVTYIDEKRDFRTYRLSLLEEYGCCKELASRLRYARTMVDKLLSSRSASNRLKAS
Sequence of BMX (P51813 whole entry): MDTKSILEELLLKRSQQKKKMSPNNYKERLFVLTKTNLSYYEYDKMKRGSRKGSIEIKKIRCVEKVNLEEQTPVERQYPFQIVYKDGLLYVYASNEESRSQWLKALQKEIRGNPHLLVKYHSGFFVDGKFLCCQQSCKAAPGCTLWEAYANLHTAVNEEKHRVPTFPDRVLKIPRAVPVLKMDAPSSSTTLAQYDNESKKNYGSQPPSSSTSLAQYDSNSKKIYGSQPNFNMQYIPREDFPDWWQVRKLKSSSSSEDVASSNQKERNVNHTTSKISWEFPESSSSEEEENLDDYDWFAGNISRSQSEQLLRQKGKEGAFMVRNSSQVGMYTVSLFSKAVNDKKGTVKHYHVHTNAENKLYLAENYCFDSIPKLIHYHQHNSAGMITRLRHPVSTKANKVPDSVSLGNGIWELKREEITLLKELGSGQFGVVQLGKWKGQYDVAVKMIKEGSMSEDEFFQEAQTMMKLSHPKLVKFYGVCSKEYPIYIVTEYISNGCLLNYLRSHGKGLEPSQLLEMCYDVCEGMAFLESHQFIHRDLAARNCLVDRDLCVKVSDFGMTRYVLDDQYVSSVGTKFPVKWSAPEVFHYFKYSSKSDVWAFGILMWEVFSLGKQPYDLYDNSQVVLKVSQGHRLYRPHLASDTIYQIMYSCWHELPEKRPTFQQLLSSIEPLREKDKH
Sequence of EPHA8 (P29322 28-1005): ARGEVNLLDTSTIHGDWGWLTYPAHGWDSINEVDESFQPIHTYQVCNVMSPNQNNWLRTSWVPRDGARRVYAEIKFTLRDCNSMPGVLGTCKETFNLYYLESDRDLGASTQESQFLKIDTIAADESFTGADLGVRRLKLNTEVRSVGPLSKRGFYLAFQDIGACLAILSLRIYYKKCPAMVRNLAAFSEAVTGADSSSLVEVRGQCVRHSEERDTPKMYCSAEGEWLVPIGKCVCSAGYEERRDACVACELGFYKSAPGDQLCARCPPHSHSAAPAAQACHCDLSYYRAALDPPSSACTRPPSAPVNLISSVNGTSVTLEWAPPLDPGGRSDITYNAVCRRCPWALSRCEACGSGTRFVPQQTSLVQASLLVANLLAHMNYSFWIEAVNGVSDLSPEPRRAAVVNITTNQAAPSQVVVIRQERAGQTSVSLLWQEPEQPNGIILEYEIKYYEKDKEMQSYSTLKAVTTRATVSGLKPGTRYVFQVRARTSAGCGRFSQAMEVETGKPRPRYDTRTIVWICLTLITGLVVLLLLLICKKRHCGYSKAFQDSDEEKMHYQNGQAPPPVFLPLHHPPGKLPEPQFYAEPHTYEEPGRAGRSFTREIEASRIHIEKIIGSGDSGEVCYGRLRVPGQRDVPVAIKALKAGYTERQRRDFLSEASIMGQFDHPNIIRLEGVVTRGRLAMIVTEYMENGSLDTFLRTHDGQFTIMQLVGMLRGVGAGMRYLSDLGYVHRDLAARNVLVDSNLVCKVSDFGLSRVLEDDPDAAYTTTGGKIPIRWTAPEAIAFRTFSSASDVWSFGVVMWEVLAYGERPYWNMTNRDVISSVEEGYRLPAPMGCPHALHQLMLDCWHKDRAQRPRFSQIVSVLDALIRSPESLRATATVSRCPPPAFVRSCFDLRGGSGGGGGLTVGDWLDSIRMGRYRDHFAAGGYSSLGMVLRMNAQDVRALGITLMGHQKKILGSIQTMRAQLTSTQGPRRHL
Sequence of RAF1 (P04049 306-648 Y340D/Y341D limits assumed): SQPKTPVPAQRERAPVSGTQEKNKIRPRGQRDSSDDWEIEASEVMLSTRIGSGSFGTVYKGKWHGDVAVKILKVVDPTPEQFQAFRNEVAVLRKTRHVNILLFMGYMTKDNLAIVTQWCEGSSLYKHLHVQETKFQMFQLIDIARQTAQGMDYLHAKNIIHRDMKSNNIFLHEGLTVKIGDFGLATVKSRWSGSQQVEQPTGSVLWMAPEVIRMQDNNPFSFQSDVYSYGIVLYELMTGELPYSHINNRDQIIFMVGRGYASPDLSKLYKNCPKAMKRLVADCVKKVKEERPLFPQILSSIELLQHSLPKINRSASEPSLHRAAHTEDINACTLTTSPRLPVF
Sequence of FGFR1 (P11362 22-822): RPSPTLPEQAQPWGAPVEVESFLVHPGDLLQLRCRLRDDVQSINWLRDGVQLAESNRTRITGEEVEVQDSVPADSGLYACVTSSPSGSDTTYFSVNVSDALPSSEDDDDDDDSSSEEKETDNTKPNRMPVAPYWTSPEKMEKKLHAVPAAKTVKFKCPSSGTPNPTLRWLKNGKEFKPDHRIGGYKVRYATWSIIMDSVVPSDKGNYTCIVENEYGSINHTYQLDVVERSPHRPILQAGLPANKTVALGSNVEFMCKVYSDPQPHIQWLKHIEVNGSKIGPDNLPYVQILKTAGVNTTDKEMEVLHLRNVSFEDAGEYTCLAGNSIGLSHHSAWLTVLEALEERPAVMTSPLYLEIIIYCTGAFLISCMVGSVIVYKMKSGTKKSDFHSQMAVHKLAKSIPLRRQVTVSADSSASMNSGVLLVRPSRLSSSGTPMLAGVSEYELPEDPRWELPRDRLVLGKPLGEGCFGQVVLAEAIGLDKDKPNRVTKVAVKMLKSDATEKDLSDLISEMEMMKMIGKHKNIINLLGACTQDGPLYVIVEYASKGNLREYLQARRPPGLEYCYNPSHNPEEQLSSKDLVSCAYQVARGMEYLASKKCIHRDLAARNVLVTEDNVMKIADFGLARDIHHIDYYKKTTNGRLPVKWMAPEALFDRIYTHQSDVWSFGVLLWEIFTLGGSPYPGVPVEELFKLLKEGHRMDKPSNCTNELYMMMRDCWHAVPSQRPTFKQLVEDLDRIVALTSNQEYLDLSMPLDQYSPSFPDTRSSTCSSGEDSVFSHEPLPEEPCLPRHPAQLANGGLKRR
Sequence of ITK (Q08881 whole entry): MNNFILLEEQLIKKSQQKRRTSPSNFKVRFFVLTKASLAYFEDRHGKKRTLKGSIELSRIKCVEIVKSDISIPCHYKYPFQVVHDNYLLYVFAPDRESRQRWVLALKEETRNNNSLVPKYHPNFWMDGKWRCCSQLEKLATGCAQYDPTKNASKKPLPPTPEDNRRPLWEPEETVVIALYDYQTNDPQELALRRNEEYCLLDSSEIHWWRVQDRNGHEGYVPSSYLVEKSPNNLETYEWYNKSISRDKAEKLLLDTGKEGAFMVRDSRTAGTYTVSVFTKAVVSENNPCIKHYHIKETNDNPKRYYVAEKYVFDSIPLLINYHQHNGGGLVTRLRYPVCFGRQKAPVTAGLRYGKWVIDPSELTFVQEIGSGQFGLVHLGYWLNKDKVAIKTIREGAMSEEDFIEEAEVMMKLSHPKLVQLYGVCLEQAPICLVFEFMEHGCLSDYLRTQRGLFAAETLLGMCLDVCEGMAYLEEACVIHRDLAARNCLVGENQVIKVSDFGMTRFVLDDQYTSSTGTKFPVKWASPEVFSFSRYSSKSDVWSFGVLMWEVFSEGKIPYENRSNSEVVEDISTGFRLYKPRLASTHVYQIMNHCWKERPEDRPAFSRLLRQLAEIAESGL

Regarding `CCc1nc(C(N)=O)c(Nc2ccc(N3CCC(Nc4ccccc4)CC3)c(OC)c2)nc1NC1CCOC(C(O)CO)C1` (stereo not drawn) [FLIN-4], the Kd in assay [1] came out at 0.00095 ± 6e-05 µM. For the same molecule, the IC50 in assay [2] was 0.00107 ± 4e-05 µM; in [5], greater than 10 µM; in [6], greater than 10 µM; in assay [7], greater than 10 µM; in assay [8], greater than 10 µM; in assay [9] it was greater than 10 µM. For the same molecule, the IC50 in [10], in [11], in assay [12], in [13], in assay [14] and in assay [15] was greater than 10 µM each time. In addition, the “FLT3-ITD inhibitory potency relative to Midostaurin” value in [3] is on record as “approximately 27 times”. In addition, in assay [4], the “Survival rate of NB4 cells” value is “did not induce any significant changes in the survival rates”.
